Measurements taken from US20240002368A1 (QILU REGOR THERAPEUTICS INC., priority 2020, published 2024).

Legend:
Trex1−/− mice = conditions: given to Trex1−/− mice; cited from earlier work
STING pathway = assay: IFN β reporter assay (HTRF, 2′3′-cGAMP-stimulated THP1 cells); assay type: cell-based, human; conditions: Homo sapiens, THP-1, THP1 cells, 5 μM 2′3′-cGAMP, IFN β secretion inhibition; class symbols; read-out: IFN β reporter activity IC50
Experimental: STING pathway deactivation by the compounds described herein was measured using THP1 cells. The THP1 Cells (obtained from ATCC, Cat #TIB-202) were maintained in RPMI-1640 (Gibco, Cat #22400105), 10% FBS, 1% Pen-Strep, 0.05 mM 2-mercaptoethanol. For STING activation, 2′3′-cGAMP (MW 718.38, obtained from Invivogen) was used and prepared in serum-free RPMI-1640 media. Growth media: RPMI-1640 (HEPES, glutamine), 10% FBS, 1% Pen-Strep, 0.05 mM 2-mercaptoethanol. Assay media: RPMI-1640 (HEPES, glutamine), 0.5% FBS. 2′3′-cGAMP: Dissolve 2′3′-cGAMP to 10 mM stock in H2O.
The cells were prepared and seeded at 100K, 90 μL/well with assay media in cell culture plate (Greiner 655180). The compounds were added in 96-well tissue culture plates by Tecan D300e for a final concentration of 0.00137-3 μM.
Lipo2000/3000 and 2′3′-cGAMP stock solutions were diluted respectively in serum-free RPMI-1640 media. The diluted 2′3′-cGAMP and Lipo (V/V=1:1) were mixed and stood for 15 min at room temperature. 10 μL 2,3-cGAMP/Lipofectamine (10×) was transferred to the 96-well assay plate with a final 2′3′-cGAMP concentration of 5 μM. The cell plates were centrifuged at 1000 rpm for 5 min after incubating at 37° C., 5% CO2 overnight.
All reagents (human IFN beta kit, Cisbio 62HIFNBPEG) were warmed to room temperature for at least 30 min before the assay. The instructions of the kit were followed to prepare the detection media. 14 μL of cell supernatants was transferred into their dedicated wells in 384-well plate. Then 2 μL of the activation reagent solution and 4 μL of the mixed antibody solution were added to all wells. The plate was sealed and incubated for 3 h at room temperature.
The HTRF signal was read in Envision (PerkinElmer). IFN β reporter activity was then measured. The calculated ratio is the signal at 665 nm/signal at 615 nm. IC50 values are calculated by using standard methods known in the art.

Row | SMILES | development of experimental autoimmune myocarditis (Trex1−/− mice) | IC50 (STING pathway)
1 | CCN(CCO)CCCC(C)Nc1ccnc2cc(Cl)ccc12 (centres unmarked) [hydrochloroquine] | prevents | 
2 | Cn1cc(C(=O)Nc2c[nH]c3cc(F)c(F)cc23)c2cc(F)c(CNCC(F)(F)F)cc21 [Example 106] |  | < 50 nM
